Source: patent US8785483B2, “Methods for treating COPD” (The Board of Regents of the University of Texas System, priority 2010, dated 2014)

Columns and labels:
[1] = system: small airway epithelial cells (SAEC); test: Cell viability (MTT) assay, CSE-induced cell death; type: cell-based, human; settings: 24 h, with fidarestat (10 μM in FIG. 1 legend, 20 μM in method)
Description: FIG. 1. Inhibition of AR prevents cigarette smoke extract (CSE)-induced cell-death in small airway epithelial cells (SAEC). MTT assay was performed after incubating the cells for 24 h with different concentrations of CSE in absence and presence of 10 μM Fidarestat. Bars (Mean±SD; n=6) represent the absorbance at 570 nm corresponding to live cells. Primary human Small Airway Epithelial Cells (SAEC) obtained from Lonza (Walkersville, Md.) were normal human SAEC harvested from distal airspace of donor. The cells were cultured according to the supplier's instructions at 37° C. in humidified atmosphere containing 95% air and 5% CO2 in small airway epithelial basal medium (SABM) with supplements containing 52 μg/ml bovine pituitary extract, 0.5 ng/ml human recombinant epidermal growth factor (EGF), 0.5 μg/ml epinephrine, 1 μg/ml hydrocortisone, 10 μg/ml transferrin, 5 μg/ml insulin, 0.1 ng/ml retinoic acid (RA), 6.5 ng/ml triiodothyronine, 50 μg/ml Gentamicin/Amphotericin-B (GA-1000), and 50 μg/ml fatty acid-free bovine serum albumin (BSA). […] Absorbance was read at 570 nm using a 96-well ELISA plate reader.

[2] = system: ERK1/2; test: Western blot of ERK1/2 phosphorylation in airway epithelial monolayer; type: cell-based, human; settings: ALI monolayer, AR inhibitor 24 h prior to IL-13
Description: FIG. 7. AR inhibition prevents IL-13-induced phosphorylation of JAK-1, ERK1/2 and STAT-6 in airway epithelial monolayer. The ciliated monolayer of airway cells at ALI was treated with AR inhibitor for 24 h and stimulated with IL-13 for different time periods as indicated. At the end of incubation, cells were lysed and cell lysate was subjected to western blotting using antibodies against phosphorylated and nonphosphorylated JAK-1, ERK1/2 and STAT-6 to analyze the activation of these signaling proteins. A representative blot is shown (n=4). #p<0.001 vs Control; *p<0.01 and **p<0.001 vs IL-13. For air-liquid interface (ALI) culture, SAEC were seeded at 8.5×10^4 cells/12-mm-diameter PET transparent insert with […] pores (12-well millicell culture insert; Millipore) and pre-coated with rat tail collagen type-1 (Sigma-Aldrich). The cells were grown submerged in the differentiation medium as described earlier by Zhen et al. (Am J Respir Cell Mol Biol 36: 244-253, 2007). […] Protein levels were determined using Bradford reagent (Biorad, Hercules, Calif.). […] The blots were then washed, exposed to HRP-conjugated secondary antibodies (1:5,000 dilution) for 1 h, and the antigen-antibody complex was detected by enhanced chemiluminescence (Amersham Pharmacia Biotech, Piscataway, N.J., USA). […]

NC(=O)[C@@H]1C[C@]2(NC(=O)NC2=O)c2cc(F)ccc2O1 [fidarestat, (2S,4S)-2-aminoformyl-6-fluoro-spiro[chroman-4,4′-imidazolidine]-2′,5′-dione]
cells alive after CSE ([1]; 12.5% CSE): more than 95% | cells alive after CSE ([1]; 50% CSE): > 85% | IL-13-induced phosphorylation of ERK1/2 [2]: decreased significantly
